# Entries after “also recorded” stand apart in the source; their conditions may differ.
# What was measured:
# BAG-75 and BSP = assay: Uptake and proteolytic cleavage of BAG-75 and BSP in mineralizing UMR cultures (SDS-PAGE, staining, immunoblotting); format: cell-based, Rat
# Procedure: Two Step Extraction of Cell Layer—2-Step Method. During the final 24 hour mineralization period, cells were grown in BSA-free, serum-free media conditions to reduce the amount of BSA in fractions used for 2-dimensional gel electrophoresis. Media was removed from each flask, heated at 95° C. for 5 minutes, dialyzed against 5% acetic acid, and lyophilized to dryness. Cell layers were first extracted without mixing for 2 h at 4° C. in 0.05 M Tris-acetate buffer (pH 7.5) containing 0.15 M NaCl, 0.05 M EDTA and 0.02% sodium azide; extracts were then inactivated at 95° C. for 5 minutes, dialyzed against 5% HAc, and lyophilized to dryness. The residual cell layer was next dislodged by scrapping and then extracted overnight at 4° C. by slow mixing with 0.1 M Trisacetate buffer (pH 7.5) containing 8 M urea, 2% (w/v) CHAPS and 0.02% sodium azide. Urea extracts were then homogenized and clarified by ultracentrifugation at 30,000 rpm for 1 h at 4° C. in an SW 50.1 rotor prior to use in 2-dimensional gel electrophoresis.
# Western Blotting—Chemiluminescence Detection. […]
# The effect of AEBSF on the protein distribution within mineralizing cultures was analyzed using cells grown until 64 hours, at which time they were fed with one of four different media conditions. […]
# UMR-106 cells [1] = assay: MTT cell viability assay in UMR 106-01 cultures; format: cell-based, Rat
# Procedure: Cell Culture. UMR 106-01 cells were maintained and cultured at 37° C. and 5% carbon dioxide. Cells were seeded at a density of 1.0×10^5 cells/cm^2 in Growth Medium (Eagle's MEM supplemented with Earle's salts, 1% non-essential amino acids, 10 mM, HEPES, pH 7.2, and 10% fetal bovine serum). After 24 hours (h), the medium was exchanged with Growth Medium containing 0.5% BSA. Sixty-four hours after plating, the culture medium was exchanged with Mineralization Media (Growth Medium containing either 0.1% BSA or 10% fetal bovine serum and 7 mM β-glycerol phosphate). Cultures were then incubated for an additional 24 hours, at the end of which (88 h), the cells were fixed in 70% ethanol and either subjected to MTT assay or extracted for protein. […] Alternatively, AEBSF was added at 44 h after plating; inhibitor was then removed and exchanged for Mineralization Media at 64 h and the amount of mineralization analyzed at 88 h.
# MTT Assays Culture wells were washed with Eagle's MEM supplemented with Earle's salts and then incubated with a solution of 0.5 mg/ml MTT (3-(4,5-dimethylthiazol-2-yl)-2,5-diphenyl-2Htetrazolium bromide) in Eagle's MEM for 1-2 h at 37° C. Excess MTT solution was removed, the cells disrupted by mixing briefly with dimethylsulfoxide, and free, reduced dye was read at 490 or 540 nm in a spectrophotometer. […]
# UMR-106 cells [2] = assay: Mineral deposition (hydroxyapatite) within BMF in UMR 106-01 cultures, Alizarin red S quantitation; format: cell-based, Rat
# Procedure: Cell Culture. UMR 106-01 cells were maintained and cultured at 37° C. and 5% carbon dioxide. Cells were seeded at a density of 1.0×10^5 cells/cm^2 in Growth Medium (Eagle's MEM supplemented with Earle's salts, 1% non-essential amino acids, 10 mM, HEPES, pH 7.2, and 10% fetal bovine serum). After 24 hours (h), the medium was exchanged with Growth Medium containing 0.5% BSA. Sixty-four hours after plating, the culture medium was exchanged with Mineralization Media (Growth Medium containing either 0.1% BSA or 10% fetal bovine serum and 7 mM β-glycerol phosphate). Cultures were then incubated for an additional 24 hours, at the end of which (88 h), the cells were fixed in 70% ethanol and either subjected to MTT assay or extracted for protein. In some experiments, protease inhibitors, including serine protease inhibitor AEBSF (4-(2-aminoethyl)-benzenesulfonylfluoride HCl), were added to cultures at 64 h after plating in Mineralization Media. Alternatively, AEBSF was added at 44 h after plating; inhibitor was then removed and exchanged for Mineralization Media at 64 h and the amount of mineralization analyzed at 88 h.
# Quantitation of Mineralization. […] Bound dye was quantitated by extraction for 2 h at 4° C. in cold 10 mM HCl in 70% ethanol. The initial extract was collected and combined with a second extract and then read at 520 nm in a spectrophotometer. A standard curve for Alizarin red S dye was constructed for each analysis and the amount of bound dye/culture well was determined. […] Combined extracts were read at 520 nm in a spectrophotometer and the amount of bound dye/culture well was determined based on a standard curve.
# To investigate the nature of the protease activity responsible for BAG-75/BSP cleavage and the relationship of cleavage with mineralization, a variety of protease inhibitors (Table 1) were tested in the UMR model. Individual inhibitors were added to confluent cultures at 64 hours after plating and the amount of hydroxyapatite deposited within BMF was quantitated 24 hours later. […]
# [3] = tested on: primary mouse calvarial cultures; assay: MTT assay in primary mouse calvarial cultures; format: cell-based; conditions: 0.01 to 0.1 mM, scored on day 12
# Procedure: Primary mouse calvaria were isolated from 3-5 day old mice and digested with trypsin/collagenase. Three sequential enzymatic digestions were pooled and spun down at 1500 rpm and the cells were resuspended in alpha-MEM containing 10% fetal bovine serum, 2 mM L-glutamine, 100 u/ml penicillin and 30 ug/ml gentamicin (Alpha-Growth Medium). Cells were plated directly at a density of 2-3×10^6 cells per T-75 cm2 flask and allowed to reach confluency (3-4 days). Confluent cultures were passaged by trypsinization and re-plating in 12- or 24-well culture dishes at a density of 20,000 cells per cm2. Cultures were subsequently re-fed at three-day intervals with Alpha-Growth Medium supplemented with 50 ug/ml ascorbic acid and 5 mM beta-glycerol phosphate. Beta-glycerol phosphate was omitted from some wells, which served as an unmineralized control. […] A second set was fixed on day 12 with 70% ethanol and processed for quantitative Alizarin red S staining as described for UMR cultures.
# MTT Assays Culture wells were washed with Eagle's MEM supplemented with Earle's salts and then incubated with a solution of 0.5 mg/ml MTT (3-(4,5-dimethylthiazol-2-yl)-2,5-diphenyl-2Htetrazolium bromide) in Eagle's MEM for 1-2 h at 37° C. Excess MTT solution was removed, the cells disrupted by mixing briefly with dimethylsulfoxide, and free, reduced dye was read at 490 or 540 nm in a spectrophotometer.
# [4] = tested on: procollagen C proteinase enhancer protein, 1,25-D3-MARRS, nascent polypeptide associated complex alpha chain; assay: 2-D SDS-PAGE and mass spectrometry of cell layer EDTA extracts, fragmentation of mineralization related proteins; format: cell-based, Rat; conditions: +BGP versus +BGP with 0.04 mM AEBSF, serum-depleted
# Procedure: Two Step Extraction of Cell Layer—2-Step Method. During the final 24 hour mineralization period, cells were grown in BSA-free, serum-free media conditions to reduce the amount of BSA in fractions used for 2-dimensional gel electrophoresis. Media was removed from each flask, heated at 95° C. for 5 minutes, dialyzed against 5% acetic acid, and lyophilized to dryness. Cell layers were first extracted without mixing for 2 h at 4° C. in 0.05 M Tris-acetate buffer (pH 7.5) containing 0.15 M NaCl, 0.05 M EDTA and 0.02% sodium azide; extracts were then inactivated at 95° C. for 5 minutes, dialyzed against 5% HAc, and lyophilized to dryness. […]
# Mass Spectrometric Analyses. Protein bands were detected by staining with Coomassie blue G or with Sypro Ruby dye according to the manufacturer's instructions (Bio-Rad, Inc.). […] The data were analyzed using Mascot (Matrix Science, LTD), to find protein matches in the MSDB—20050227.fasta database. […]
# AEBSF is a general serine protease inhibitor and the inhibition of mineralization by AEBSF could very well be due to the blockage of cleavage events of other necessary proteins. […] There were no major differences detected between the two growth conditions for either the urea extract or the media fraction. However, the differences detected between the two EDTA extracts were visually dramatic (FIG. 9). […]
smiles,measurement,setting,value
"Cl.NCCc1ccc(S(=O)(=O)F)cc1 [AEBSF, 4-(2-aminoethyl)-benzenesulfonylfluoride HCl]",uptake of BAG-75 and BSP (75 kDa glycophosphoprotein band) from media by the cell layer,"BAG-75 and BSP; 0.1 mM AEBSF with 7 mM β-glycerol phosphate, 64-88 hours, HCl",blocked; also recorded: blocks uptake
same,proteolytic cleavage of BAG-75 and BSP to 45-50 kDa fragments,"BAG-75 and BSP; UMR cultures with β-glycerol phosphate, two stage extraction, immunoblot",blocks uptake and cleavage
same,concentration below which no loss of cell viability was noted (MTT),"UMR-106 cells [1]; rat, UMR 106-01 cells, pH 7.2",below 1 mM
same,concentration above which toxic (MTT),UMR-106 cells [1]; serum-sufficient or serum-depleted conditions,above 0.4 mM
same,concentration capable of completely blocking mineral nucleation (as low as),"UMR-106 cells [2]; UMR cultures, 64-88 h after plating",0.04 mM
same,effect on mineral nucleation / mineralization in BMF,"UMR-106 cells [2]; UMR system, added at 64 hours after plating, optimal recommended dosage",blocked mineral nucleation
same,"difference in effectiveness, mineralization period (64-88 h) versus proliferation/differentiation period (44-64 h after plating)","UMR-106 cells [2]; assuming baseline mineral level of 150-170 nmoles/well, FIG. 4A",10 fold
same,change in viable cell number (MTT),[3],little change in viable cell number
same,cleavage of three additional proteins in EDTA extract,[4],inhibited the cleavage

# Reference: US20080299588A1, “Methods For Measuring Bone Formation” (The Curators of the University of Missouri A public …, priority 2007, published 2008)
